Experimental data taken from US20170189391A1, “Protein kinase C inhibitor for treating triple-negative breast cancer” (Macau University of Science ang Technology, priority 2015, published 2017).
pIC50: −log10 of the molar value.

Experiments:
[1] = system: non-TNBC cells; assay: Assessment of cell morphological changes (Hoechst 33258 staining); type: cell-based, human; settings: 24 hours
Method: (§1) Four Non-TNBC cell lines and four TNBC cell lines as mentioned above were treated with chelerythrine (CHE, 5 μM) for 24 hours. […] Reprehensive pictures are shown (400×). […] FIGS. 3C, 3D and 3E show the representative contour diagrams of FITC Annexin V/PI flow cytometry of cells. Fractions of apoptotic cells were quantified. Average values are calculated from three independent experiments (n=3). […] Apoptosis was analyzed by flow cytometry with Annexin V/PI staining. Representative contour diagrams and quantified data are shown. Average values are calculated from three independent experiments (n=3). Data is shown as mean±SD.
(§2) Cells were plated in 12-well plates (80,000-300,000 cells/well) and then treated with […] chelerythrine for 24 hours. After incubation, cells were collected, washed with PBS and stained with Hoechst 33258 (11.1 mg/ml) in buffered formalin solution containing 5.6% NP-40. Living and apoptotic cells were visualized through DAPI filter of fluorescence inverted microscope (Leica DM2500 Fluorescence Microscope) at ×400 magnification.

[2] = system: TNBC cells; assay: as above; type: cell-based, human; settings: 24 hours
Method: as §1, §2

[3] = system: TNBC cell lines; assay: Western blotting of cleaved PARP (cPARP); type: cell-based, human; settings: TNBC compared with non-TNBC cell lines, after chelerythrine treatment
Method: as §1
Protein samples were prepared by adding RIPA buffer with protease inhibitor cocktail (Roche) to cells and diluted in SDS-PAGE protein sample buffer. Samples were heated for 5 minutes at 95° C. before fractionation on SDS-polyacrylamide gels. The proteins were then transferred to Immobilon P (Millipore) and incubated with primary antibodies overnight at 4° C. The membranes were then washed with TBST and incubated with the appropriate horseradish peroxidase-conjugated secondary antibodies at room temperature. Proteins were visualized with SuperSignal West Dura Extended Duration Substrate or SuperSignal West Pico Chemiluminescent Substrate (Thermo Scientific).

[4] = system: non-TNBC cells; assay: Colony formation assay; type: cell-based, human; settings: treatment for 48 hours, chelerythrine 5 μM (FIG. 1C)
Method: (§3) Four non-triple-negative breast cancer (Non-TNBC) cell lines (MCF7, ZR-75-1, SK-BR-3 and MDA-MB-453) and four triple-negative breast cancer (TNBC) cell lines (MDA-MB-231, BT549, HCC1937 and MDA-MB-468) were used to determine the growth inhibition effect of chelerythrine. […] The cell number at each chelerythrine concentration is represented as a percentage of control (treatment without chelerythrine). Average values are calculated from three independent experiments performed in duplicate (n=3). […] The cell number at each time point is represented as a percentage of control (treatment without chelerythrine). Average values are calculated from three independent experiments performed in duplicate (n=3). […] Representative colony formation assay plates are shown, which are quantified by counting colony number (n=4). Data is shown as mean±SD. […] Cells were then washed with PBS, plated in drug-free medium in 6-well plates at densities of 2,000 cells/well and incubated for 7-10 days in the absence of drug. Colonies were stained with 0.2% (w/v) crystal violet in buffered formalin for 10 minutes. The number of colonies was counted.

[5] = system: TNBC cells; assay: Colony formation assay; type: cell-based, human; settings: chelerythrine 5 μM (FIG. 1C)
Method: as §3

[6] = system: all TNBC cell lines; assay: Flow-cytometric analysis of cell cycle, all TNBC lines; type: cell-based, human; settings: upon chelerythrine treatment, 24 hours
Method: (§4) Four Non-TNBC cell lines and four TNBC cell lines as mentioned above were treated with chelerythrine (CHE, 5 μM) for 24 hours. […] Average values are calculated from three independent experiments (n=3). Data is shown as mean±SD.
(§5) Flow cytometric analyses were performed to define the cell cycle distribution […] after treatment with […] chelerythrine. Cells were harvested, washed twice with PBS, resuspended in 0.5 ml PBS (1,000,000˜2,000,000 cells/ml). Then 4 ml 70% ethanol was added and the mixture was kept at −20° C. for 2 hours to fix the cells. Cells were stained for total DNA content with a solution containing […] propidium iodide, 200 μg/ml DNase-free RNase A, and 0.1% triton X-100 in PBS for 30 minutes at room temperature. Cell cycle distribution was analyzed by flow cytometry (BD Bioscience). The percentages of the total cell population in the four different phases (Sub-G0/G1, G0/G1, S, G2/M) of cell cycle was determined using FlowJo software.

[7] = system: MDA-MB-468; assay: Flow-cytometric analysis of apoptosis (Annexin V/PI); type: cell-based, human; settings: MDA-MB-468, 24 hours, chelerythrine 5 μM (FIG. 3)
Method: as §1
(§6) Cellular apoptosis was analyzed with BD Annexin V: Fitc Apoptosis Detection Kit I (BD Bioscience) by flow cytometry. Briefly cells were plated in 6-well plates (100,000˜400,000 cells/well) and treated with chelerythrine. At the indicated time point, cells were harvested, washed twice with cold PBS, and resuspended in 1X Binding Buffer at a concentration of 1,000,000 cells/ml. 100 μl cells were transferred to 1.5 ml conical tube and 5 μl FITC Annexin V and 5 μl propidium iodide were added. The mixture was gently vortexed and incubated at room temperature for 15 minutes in the dark, followed by adding 400 μl 1x Binding Buffer to each tube. Cells were filtered and analyzed by flow cytometry (BD Bioscience) within 1 hour. Total apoptotic cells (FITC Annexin V positive) were counted.

[8] = system: HCC1937; assay: as above; type: cell-based, human; settings: HCC1937, 24 hours, chelerythrine 5 μM (FIG. 3)
Method: as §1, §6

[9] = system: MDA-MB-231; assay: as above; type: cell-based, human; settings: MDA-MB-231, 24 hours, chelerythrine 5 μM (FIG. 3)
Method: as §1, §6

[10] = system: four non-TNBC cell lines; assay: as above; type: cell-based, human; settings: same treatment, 24 hours
Method: as §1, §6

[11] = system: T-549; assay: as above; type: cell-based, human; settings: T-549 (so in the source), 24 hours, chelerythrine 5 μM (FIG. 3)
Method: as §1, §6

[12] = system: MDA-MB-468; assay: In vitro cell proliferation assay (SRB assay); type: cell-based; settings: Homo sapiens; MDA-MB-468 (TNBC), 72-hour treatment
Method: (§7) The anti-proliferative effects of tested agents on breast cancer cell lines were assessed by sulforhodamine B (SRB) colorimetric assay as previously described. Briefly, cells were seeded in 96-well plates in a volume of […] at densities of 5,000˜40,000 cells per well. After overnight incubation at 37° C. in a humidified incubator with 5% CO2, 100 ml medium containing agents (2 X indicated concentrations) were added. After 72-hour treatment, attached cells were fixed with 50 ml cold 50% (w/v) trichloroacetic acid (TCA) for 1 hour at 4° C. and then stained with 100 ml 0.4% (w/v) SRB. The absorbency at 515 nm was measured using SpectraMax 190 microplate reader (Molecular Devices) after solubilizing the protein-bound dye with 200 ml 10 mM Tris base solution (pH 10.5). The IC50 value was defined as the concentration required for a 50% reduction in cell growth.
(§8) To test in vitro anti-proliferative activity of chelerythrine on breast cancer cells, four TNBC cell lines (MDA-MB-231, BT-549, HCC1937 and MDA-MB-468) and four non-TNBC cell lines (MCF7, ZR-75-1, SK-BR-3 and MDA-MB-453) were treated with a series of chelerythrine concentrations ranging from […] for 72 hours. […] On the contrary, the tested non-TNBC cell lines were relatively resistant to chelerythrine treatment on compared with the TNBC cell lines.

[13] = system: BT-549; assay: In vitro cell proliferation assay (SRB assay); type: cell-based; settings: Homo sapiens; BT-549 (TNBC), 72-hour treatment
Method: as §7, §8

[14] = system: HCC1937; assay: In vitro cell proliferation assay (SRB assay); type: cell-based; settings: Homo sapiens; HCC1937 (TNBC), 72-hour treatment
Method: as §7, §8

[15] = system: MCF7; assay: In vitro cell proliferation assay (SRB assay); type: cell-based; settings: Homo sapiens; MCF7 (Non-TNBC), 72-hour treatment
Method: as §7, §8

[16] = system: MDA-MB-231; assay: In vitro cell proliferation assay (SRB assay); type: cell-based; settings: Homo sapiens; MDA-MB-231 (TNBC), 72-hour treatment
Method: as §7, §8

[17] = system: SK-BR-3; assay: In vitro cell proliferation assay (SRB assay); type: cell-based; settings: Homo sapiens; SK-BR-3 (Non-TNBC), 72-hour treatment
Method: as §7, §8

[18] = system: MDA-MB-468; assay: Flow-cytometric analysis of cell cycle; type: cell-based, human; settings: MDA-MB-468, chelerythrine 5 mM (so in the source), 24 hours
Method: as §4, §5

[19] = system: BT-549; assay: Flow-cytometric analysis of cell cycle; type: cell-based, human; settings: BT-549, chelerythrine 5 mM (so in the source), 24 hours
Method: as §4, §5

[20] = system: HCC1937; assay: Flow-cytometric analysis of cell cycle; type: cell-based, human; settings: HCC1937, chelerythrine 5 mM (so in the source), 24 hours; 45.1% without treatment
Method: as §4, §5

[21] = system: non-TNBC cells; assay: Flow-cytometric analysis of cell cycle; type: cell-based, human; settings: chelerythrine 5 mM (so in the source), 24 hours
Method: as §4, §5

[22] = system: MDA-MB-231; assay: Flow-cytometric analysis of cell cycle; type: cell-based, human; settings: MDA-MB-231, chelerythrine 5 mM (so in the source), 24 hours
Method: as §4, §5

[23] = system: TNBC cell lines (MDA-MB-231, BT-549, HCC1937 and MDA-MB-468); assay: In vitro cell proliferation assay (SRB assay), four TNBC lines together; type: cell-based, human; settings: for cell growth: 5 mM (so in the source) chelerythrine
Method: as §7, with “After 72-hour treatment, attached cells were fixed with 50 ml cold 50% (w/v) trichloroacetic acid (TCA) for 1 hour at 4° C. and then stained with 100 ml 0.4% (w/v) SRB.” left out
as §8

[24] = system: non-TNBC cell lines (MCF7, ZR-75-1, SK-BR-3 and MDA-MB-453); assay: In vitro cell proliferation assay (SRB assay), four non-TNBC lines together; type: cell-based, human
Method: as §7, §8

[25] = system: MDA-MB-453; assay: In vitro cell proliferation assay (SRB assay); type: cell-based, human; set-up: inhibitory effect at the highest concentration tested: dose or concentration left out as unconfirmed
Method: as §7, §8

[26] = system: ZR-75-1; assay: In vitro cell proliferation assay (SRB assay); type: cell-based, human; set-up: inhibitory effect at the highest concentration tested: dose or concentration left out as unconfirmed
Method: as §7, §8

Compound: COc1ccc2c(c[n+](C)c3c4cc5c(cc4ccc23)OCO5)c1OC [chelerythrine]
- apoptotic morphological changes [1]: not in non-TNBC cells
- apoptotic morphological changes [2]: caused chromatin condensation and nuclear fragmentation
- cleaved nuclear poly (ADP-ribose) polymerase (cPARP), marker of apoptosis [3]: detection of the cleaved nuclear poly (ADP-ribose) polymerase
- colony formation ability [4]: reserved largely of their colony formation ability
- colony formation ability ([5]; treatment for 3 hours): dramatically decreased
- Colony formation ([5]; treatment for 6 hours): almost no cells grew into colonies
- nuclei with sub-G0/G1 DNA content characteristic of apoptosis [6]: substantial proportion
- mean percentages of apoptotic cells [7]: 35.3%
- mean percentages of apoptotic cells [8]: 22.2%
- mean percentages of apoptotic cells [9]: 67.8%
- apoptosis induction / viability [10]: remained viable
- mean percentages of apoptotic cells [11]: 51.0%
- pIC50 [12]: 5.38
- pIC50 [13]: 5.59
- pIC50 [14]: 5.44
- pIC50 [15]: < 5.00
- pIC50 [16]: 5.52
- pIC50 [17]: < 5.00
- cell cycle arrest [18]: marked cell cycle arrest at G2/M phase
- cell cycle progression [19]: no obvious changes
- percentage of cells in G0/G1 phase [20]: 52.9%
- cell cycle distribution [21]: basically unchanged
- cell cycle progression [22]: no obvious changes
- cell growth ([23]; 24 hour): significant reduction of cell growth
- cell growth ([23]; 72 hour): almost died out
- pIC50 ([23]; Homo sapiens, range over MDA-MB-231, BT-549, HCC1937 and MDA-MB-468, 72 hours, read-out: IC50 values, growth of TNBC cell lines): 5.38 to 5.59
- inhibition of cell growth ([24]; 5 mM (so in the source) chelerythrine, each time point, versus TNBC lines): much less inhibition of cell growth
- pIC50 ([24]; Homo sapiens, 72 hours, read-out: IC50 values of all of the four non-TNBC cell lines): < 5.00
- pIC50 ([25]; Homo sapiens, MDA-MB-453 (Non-TNBC), 72-hour treatment): < 5.00
- inhibitory effect at the highest concentration tested ([25]; MDA-MB-453, highest concentration tested, 72 hours): did not show any inhibitory effect
- pIC50 ([26]; Homo sapiens, ZR-75-1 (Non-TNBC), 72-hour treatment): < 5.00
- inhibitory effect at the highest concentration tested ([26]; ZR-75-1, highest concentration tested (so in the source), 72 hours): did not show any inhibitory effect
